“And” between values parts separate entries of the source, which are not always exact repeats. Equal entries are not always repeated.
Experiments:
[1] = Closed cell (Static) method
[2] = molar heat capacity at constant pressure; conditions: 101.33 kPa, Liquid, Thin-film microcalorimeter

CC(C)=CCC/C(C)=C/CO [(E)-3,7-dimethyl-2,6-octadien-1-ol]
[1], Liquid
Conditions | vapor or sublimation pressure
273.65 K | 0.000112 kPa and 0.000109 kPa and 0.000111 kPa
278.15 K | 0.00019 kPa and 0.000192 kPa and 0.000195 kPa
283.15 K | 0.000357 kPa and 0.000355 kPa and 0.000358 kPa
288.15 K | 0.000641 kPa and 0.000637 kPa and 0.000639 kPa
293.11 K | 0.001082 kPa
293.14 K | 0.001071 kPa and 0.001079 kPa
293.15 K | 0.001116 kPa and 0.001114 kPa and 0.001118 kPa
298.15 K | 0.001894 kPa [middle of 6 runs]
303.15 K | 0.003189 kPa and 0.003178 kPa and 0.00319 kPa
303.17 K | 0.003087 kPa and 0.003101 kPa
303.18 K | 0.003091 kPa
308.15 K | 0.005168 kPa and 0.00517 kPa and 0.005167 kPa
308.19 K | 0.005018 kPa and 0.005019 kPa and 0.005016 kPa
313.16 K | 0.008035 kPa and 0.008051 kPa and 0.008055 kPa
318.16 K | 0.01263 kPa and 0.01264 kPa and 0.01265 kPa
323.17 K | 0.0196 kPa and 0.01965 kPa and 0.0197 kPa
328.17 K | 0.03003 kPa and 0.0301 kPa
333.16 K | 0.04478 kPa and 0.04499 kPa and 0.04502 kPa
338.14 K | 0.06605 kPa and 0.06612 kPa and 0.06614 kPa
343.13 K | 0.09605 kPa and 0.09608 kPa and 0.0961 kPa
348.1 K | 0.1372 kPa and 0.1373 kPa
353.07 K | 0.194 kPa and 0.1941 kPa
358.04 K | 0.2693 kPa and 0.2697 kPa
362.92 K | 0.3686 kPa and 0.3687 kPa
362.94 K | 0.3684 kPa

[2]
Conditions | molar heat capacity at constant pressure [J/K/mol]
260.8 K | 310.1
265 K | 313.5
270 K | 317.5
275 K | 322.2
280 K | 326.7
285 K | 331.3
290 K | 336.2
295 K | 341.3
300 K | 346.1
305 K | 350.9
310 K | 355.8
315 K | 360.7
320 K | 365.6
325 K | 370.6
330 K | 376.2
335 K | 381.1
340 K | 385.5
345 K | 389.8
350 K | 394.3
355 K | 398.6

CC(C)=CCC[C@H](C)CCO [(S)-3,7-dimethyl-6-octen-1-ol]
[1], Liquid
Conditions | vapor or sublimation pressure
273.65 K | 0.000129 kPa and 0.00013 kPa and 0.000133 kPa
278.15 K | 0.000231 kPa and 0.000228 kPa and 0.000235 kPa
283.15 K | 0.00043 kPa and 0.000432 kPa
288.15 K | 0.00077 kPa and 0.000777 kPa and 0.000779 kPa
293.15 K | 0.001361 kPa and 0.001358 kPa
293.17 K | 0.001319 kPa and 0.001331 kPa and 0.001328 kPa
298.15 K | 0.00233 kPa and 0.002328 kPa and 0.002323 kPa
298.18 K | 0.002272 kPa
298.19 K | 0.00227 kPa
298.2 K | 0.002271 kPa
303.15 K | 0.003871 kPa and 0.003875 kPa and 0.003876 kPa
303.16 K | 0.003787 kPa
303.19 K | 0.003806 kPa
303.2 K | 0.003795 kPa
308.15 K | 0.006284 kPa and 0.006296 kPa and 0.006302 kPa
308.19 K | 0.006203 kPa and 0.006213 kPa
308.21 K | 0.006198 kPa
313.2 K | 0.009899 kPa
313.21 K | 0.009904 kPa and 0.009905 kPa
318.23 K | 0.01566 kPa
318.24 K | 0.01565 kPa and 0.01566 kPa
323.22 K | 0.0243 kPa
323.23 K | 0.02431 kPa
328.2 K | 0.03714 kPa
328.21 K | 0.03718 kPa and 0.03714 kPa
333.23 K | 0.05589 kPa and 0.05585 kPa and 0.05576 kPa
338.19 K | 0.08215 kPa
338.2 K | 0.08219 kPa and 0.08218 kPa
343.19 K | 0.1192 kPa and 0.1193 kPa
348.14 K | 0.1705 kPa
348.15 K | 0.1706 kPa
353.1 K | 0.2403 kPa and 0.2404 kPa
358.01 K | 0.3337 kPa
358.02 K | 0.3345 kPa and 0.3342 kPa
362.97 K | 0.4601 kPa
362.98 K | 0.4602 kPa and 0.4607 kPa

[2]
Conditions | molar heat capacity at constant pressure [J/K/mol]
260.2 K | 316.4
265 K | 320.7
270 K | 325.5
275 K | 330.5
280 K | 335.6
285 K | 340.9
290 K | 346.5
295 K | 352.3
300 K | 357.9
305 K | 363.6
310 K | 369.3
315 K | 375
320 K | 380.6
325 K | 386.5
330 K | 392.9
335 K | 398.8
340 K | 404
345 K | 409.2
350 K | 414.6
355 K | 420

CC1(C)[C@H]2CC[C@]1(C)[C@H](O)C2 [(1S-endo)-1,7,7-trimethylbicyclo[2.2.1]heptan-2-ol]
[1]
Conditions | vapor or sublimation pressure
293.12 K, Crystal 2 | 0.001843 kPa
293.13 K, Crystal 2 | 0.001845 kPa and 0.001846 kPa
298.14 K, Crystal 2 | 0.003114 kPa and 0.003117 kPa
298.15 K, Crystal 2 | 0.003118 kPa
303.16 K, Crystal 2 | 0.005163 kPa and 0.005164 kPa
303.17 K, Crystal 2 | 0.005165 kPa
308.16 K, Crystal 2 | 0.008376 kPa
308.18 K, Crystal 2 | 0.008394 kPa and 0.008395 kPa
313.13 K, Crystal 2 | 0.01335 kPa
313.14 K, Crystal 2 | 0.01336 kPa and 0.01337 kPa
318.14 K, Crystal 2 | 0.02101 kPa and 0.02103 kPa
318.15 K, Crystal 2 | 0.02103 kPa
323.17 K, Crystal 2 | 0.03267 kPa
323.18 K, Crystal 2 | 0.03269 kPa
323.19 K, Crystal 2 | 0.03273 kPa
328.14 K, Crystal 2 | 0.04968 kPa and 0.04971 kPa
328.15 K, Crystal 2 | 0.04973 kPa
333.18 K, Crystal 2 | 0.07494 kPa and 0.07496 kPa and 0.07498 kPa
338.2 K, Crystal 2 | 0.1112 kPa
338.21 K, Crystal 2 | 0.1112 kPa
343.15 K, Crystal 2 | 0.1618 kPa and 0.1619 kPa
346.99 K, Crystal 2 | 0.2143 kPa
347.09 K, Crystal 2 | 0.2157 kPa
347.1 K, Crystal 2 | 0.2156 kPa
348.11 K, Crystal 1 | 0.2309 kPa and 0.2308 kPa and 0.2307 kPa
352.88 K, Crystal 1 | 0.3183 kPa
352.89 K, Crystal 1 | 0.3183 kPa and 0.3184 kPa
357.96 K, Crystal 1 | 0.4417 kPa and 0.4418 kPa
357.97 K, Crystal 1 | 0.4424 kPa
362.89 K, Crystal 1 | 0.6015 kPa
362.9 K, Crystal 1 | 0.6015 kPa
362.94 K, Crystal 1 | 0.6029 kPa

Reference: the NIST ThermoML archive (doi:10.1016/j.fluid.2015.07.031)
